One compound from patent publication US11136615B2 (PROMEGA CORPORATION, priority 2017, dated 2021) can be followed below.

What all share (format): physicochemical
Series [1] is described as follows: Effect of ATT on luciferin stability (RP-HPLC). Conditions: luciferins 1.0 mM, cationic detergent buffers pH 6.0, ATT 2.0 mM, 60° C., FIG. 3. The procedure: Representative luciferins were reconstituted (at final concentration of 1.0 mM) in buffers containing various cationic detergents at pH 6.0, with or without ATT (Sigma, at a final concentration of 2.0 mM). The mixture was incubated at 60° C. Aliquots (20 μL) were taken out at various time points, diluted with H2O (180 μL), and analyzed by RP-HPLC. The percentages of the components were calculated based on UV absorbance at 330 nm.

The nature of series [2]: Effect of ATT on pro-luciferin stability (RP-HPLC). Conditions: 2-hydroxyethyl ester of luciferin methyl ether 1.0 mM, PBS pH 7.4, 5% DMSO, ATT 8.0 mM, 37° C., FIG. 4. The procedure: A stock solution of this compound in DMSO was added to PBS buffer at pH 7.4 to reach a final concentration at 1.0 mM and 5% DMSO. The mixture was incubated at 37° C., with or without ATT (Sigma, at a final concentration of 8.0 mM). Aliquots (20 μL) were taken out at various time points, diluted with H2O (180 μL), and analyzed by RP-HPLC. The percentages of the components were calculated based on UV absorbance at 330 nm.

Series [3] can be described thus: Thermal stability (T80) of Ultra-Glo™-based ATP detection reagent. Conditions: 37° C. The procedure:
(FIG. 6). T80 (the storage time during which the complete ATP detection reagent produced ≥80% of the light output from the freshly made reagent), a parameter reflecting reagent thermal stability, was improved by 1 fold at 37° C. after addition of ATT. In particular, the T80 value in the absence of ATT (0 mM) was 4 days, whereas the T80 value in the presence of ATT (3 mM) was 8 days (FIG. 6A). Further, the combination of dehydroluciferin and ATT as additives further improved the reagent stability, increasing the T80 value to 18 days (FIG. 6B, at 3 mM ATT with 0.3 mM corresponding dehydro-compound).

The nature of series [4]: Effect of ATT on pro-luciferin stability with or without TCEP (RP-HPLC). To be noted: 2-hydroxyethyl ester of luciferin methyl ether 1.0 mM, PBS pH 7.4, 5% DMSO, ATT 8.0 mM, TCEP 10 mM, 37° C., FIG. 5. As to the method:
ATT was also shown to be compatible with additives that are commonly used in bioluminescence systems. […] The mixture was incubated at 37° C., with or without ATT (Sigma, at a final concentration of 8.0 mM), and with or without TCEP (Thermo Scientific, at a final concentration of 10 mM).

As to `Cc1n[nH]c(=S)[nH]c1=O` [ATT, 6-methyl-3-thioxo-3,4-dihydro-1,2,4-triazin-5(2H)-one], in series [1], the dehydroluciferin formation entry is on record as “reduced” and the luciferin thermal stability result is reported as “improved”. Besides, in series [2], the “decomposition of the pro-luciferin compound” value is on record as “slowed down” and the “formation of the corresponding dehydroluciferin derivative” value was “reduced”. The “T80 (storage time with ≥80% of the light output of freshly made reagent)” value in series [3] (ATT 3 mM in complete ATP detection reagent, 4 days in the absence of ATT, FIG. 6A) was 8 days. Moreover, the “improvement of T80 after addition of ATT” value in series [3] (complete ATP detection reagent) is recorded as 1 fold. Besides, in series [4], the “stability of the pro-luciferin compound in the presence of TCEP” value is on record as “improved”.
